Laboratory results reported in patent publication EP0218400A1, “Assay methods for chemotherapeutic agents” (DAMON BIOTECH, INC., priority 1985, dated 1987).

Key:
[1] = tested on: human lung carcinoma A549 cells; assay: In vivo susceptibility of encapsulated A549 cells; details: i.v. days 2, 5, 9; for No. of tumor cells per 1 ml of capsules / percent Inhibition: Adriamycin 6, BCNU 20, CY 100 mg/kg
Procedure: (§1) In the experiments that follow, the drugs and other agents tested were administered to the host animal by injection at the various times called for in the protocol being tested. At various periods after treatment, the mice were killed by cervical dislocation. The peritoneal cavity of each mouse was washed with PBS or medium and floating microcapsules were aspirated using a large bore plastic Pasteur pipette. Microcapsules were transferred to 15 ml tubes and washed 3 to 4 times with PBS to remove host peritoneal cells. The washed microcapsules were aspirated into 1 ml serological pipettes, allowed to sediment, and the volume of packed microcapsules was determined. Microcapsules were then transferred to a glas dounce homogenizer (7 ml volume) and disrupted with 3 strokes of an A-tolerance plumger. Cells suspensions were filtered through nylon mesh to remove the disrupted membranes. The suspensions containing tumor cells were centrifuged and the pellet was resuspended in 0.25 to 0.5 ml of complete medium. After mixing equal volumes of cell suspension and trypan blue, viable cell counts were determined using a hemocytometer.
(§2) The number of tumor cells per 1 ml of packed microcapsules was determined as follows: a = ? where b = total number of tumor cells in the suspension, and c = total volume of microcapsules used for the preparation of this suspension.
(§3) By comparing the number of tumor cells in 1 ml of microcapsules derived from non-treated and drug-treated mice, the percent inhibition of tumor cell growth was calculated: [formula] where ac = number of tumor cells from the non-treated control microcapsules, and ae = number of tumor cells from the drug treated microcapsules.
The sensitivity of human lung carcinoma A549 cells to the drugs was assessed 12 and 14 days after transplantation of encapsulated tumor cells. The treatments were applied i.v. 2, 5 and 9 days after microcapsule transplantation (Table 5).

human Melanoma LOX cells = assay: In vivo susceptibility of encapsulated LOX melanoma cells in nude mice
Procedure: as §1, §2, §3
In this series of experiments, cells of a fourth human cancer type, Melanoma LOX cells, were used. LOX cells have recently been proposed as the model for experimental treatment at the NCI Development Therapeutics Program. Following i.p. inoculation of the suspension of LOX Melanoma cells into nude mice, various drugs were administered i.v. and survival of the treated mice was determined (Schoemaker et al., Proceeding American Association for Cancer Research, 26, 1302, 1985) (mice transplanted with the non-encapsulated tumor cells were considered tumor-free if they survived during 3 months of observation). In parallel experiments encapsulated LOX Melanoma cells were transferred into nude mice and drugs were inoculated i.v. 1, 5 and 9 days at the dose and schedule utilized by the Dr. Shoemaker's procedure.

## COc1cccc2c1C(=O)c1c(O)c3c(c(O)c1C2=O)C[C@@](O)(C(=O)CO)C[C@@H]3O[C@H]1C[C@H](N)[C@H](O)[C@H](C)O1 [Adriamycin]
[1]; 12 days after transplantation
  No. of tumor cells per 1 ml of capsules: 9.0 x 10^5
  percent Inhibition: 85%
[1]; 14 days after transplantation
  No. of tumor cells per 1 ml of capsules: 13.5 x 10^5
  percent Inhibition: 84%
[1]
  reduction of the numbers of tumor cells (in words): more efficient in this respect than CY
Human Melanoma LOX cells; i.v. days 1, 5, 9
  sensitivity of encapsulated LOX cells to the treatment (in words): most sensitive
Human Melanoma LOX cells; i.v. days 1, 5, 9, Adriamycin 6, BCNU 20, CY 100, 5-Fu 60 mg/kg
  No. of viable tumor cells per 1 ml. of capsules: 6 x 10^5
